Reference: patent US20260234135A1, “CRYSTALLINE FORMS OR SALTS OF A DEUTERATED COMPOUND” (ALEBUND PHARMACEUTICALS (HONG KONG) LIMITED, priority 2023, published 2026)
≈ marks a conversion by molar mass, not a printed value. Where two headings read alike, the source gives them in different places.

How the values were obtained:
[1] = Approximate solubility in single solvents at RT; type: physicochemical
Method: Approximately 2 mg of sample was added into a 3-mL glass vial. Corresponding solvents were added stepwise (50 μL→50 μL→100 μL→200 μL→600 μL→1000 μL) into the vials until the solids were dissolved visually or a total volume of 2 mL was reached. The ranges of approximate solubility were calculated according to the mass of sample, volume of solvent and observation. Result summarized in Table 3 was used to guide the solvent selection in polymorph screening.

[2] = Hygroscopicity evaluation by DVS at 25° C.; type: physicochemical
Method: DVS was measured via a SMS (Surface Measurement Systems) DVS Intrinsic. The relative humidity at 25° C. were calibrated against deliquescence point of LiCl, Mg(NO3)2 and KCl.

[3] = for HPLC Purity (area %), main peak RRT 1.00 / HPLC Reults of initial (%): listed as Free acid Form B
physchem = conditions: thermodynamic from solid
[4] = SGF, 37 °C, simulated gastric fluid
[5] = pH 4.5 (KAc) buffer, 37 °C, pH 4.5, aqueous buffer
[6] = pH 6.8 buffer (K2HPO3 + KH2PO3), 37 °C, pH 6.8, aqueous buffer
[7] = pH 8.0 buffer (K2HPO3 + KH2PO3), 37 °C, pH 8, aqueous buffer

## [2H]C([2H])(Cc1nc(-c2ccccc2)oc1C)Oc1ccc(C[C@H](OC)C(=O)O)c2sccc12 [AP-303 (818159-01-A)]
[1]; 1,4-Dioxane
  Solubility: S > 46.0 mg/mL
[1]; DMSO
  Solubility: S > 44.0 mg/mL
[1]; H2O
  Solubility: S < 1.2 mg/mL
[1]; THF
  Solubility: S > 42.0 mg/mL
[1]; n-Heptane
  Solubility: S < 1.3 mg/mL

## [2H]C([2H])(Cc1nc(-c2ccccc2)oc1C)Oc1ccc(C[C@H](OC)C(=O)O)c2sccc12 [free acid Form B]
[2]; DVS, 25° C.
  Hygroscopicity: non-hygroscopic
  Water uptake up to 80% RH: 0.07%
[2]; XRPD after DVS
  Form change after DVS test: No form change
[3]; 40° C./75% RH, 2 weeks
  Area (%) peak 1, RRT 0.88: 0.20%
  Area (%) peak 2, RRT 1.00 (main peak): 99.50%
  Area (%) peak 3, RRT 1.14: 0.11%
  Area (%) peak 4, RRT 1.34: 0.20%
[3]; 40° C./75% RH, 4 weeks
  Area (%) peak 1, RRT 0.88: 0.23%
  Area (%) peak 2, RRT 1.00 (main peak): 99.47%
  Area (%) peak 3, RRT 1.14: 0.11%
  Area (%) peak 4, RRT 1.34: 0.19%
[3]; 40° C./75% RH, 8 weeks
  Area (%) peak 1, RRT 0.88: 0.20%
  Area (%) peak 2, RRT 1.00 (main peak): 99.52%
  Area (%) peak 3, RRT 1.14: 0.09%
  Area (%) peak 4, RRT 1.34: 0.19%
[3]; 40° C./75% RH/open, 2 weeks
  HPLC Purity (area %), main peak RRT 1.00: 99.50 area %
[3]; 40° C./75% RH/open, 4 weeks
  HPLC Purity (area %), main peak RRT 1.00: 99.47 area %
  HPLC Reults of initial (%): 100.00%
[3]; 40° C./75% RH/open, 8 weeks
  HPLC Purity (area %), main peak RRT 1.00: 99.52 area %
  HPLC Reults of initial (%): 100.05%
[3]; 60° C., 2 weeks
  Area (%) peak 1, RRT 0.88: 0.20%
  Area (%) peak 2, RRT 1.00 (main peak): 99.49%
  Area (%) peak 3, RRT 1.14: 0.11%
  Area (%) peak 4, RRT 1.34: 0.20%
[3]; 60° C., 4 weeks
  Area (%) peak 1, RRT 0.88: 0.22%
  Area (%) peak 2, RRT 1.00 (main peak): 99.47%
  Area (%) peak 3, RRT 1.14: 0.11%
  Area (%) peak 4, RRT 1.34: 0.20%
[3]; 60° C., 8 weeks
  Area (%) peak 1, RRT 0.88: 0.20%
  Area (%) peak 2, RRT 1.00 (main peak): 99.51%
  Area (%) peak 3, RRT 1.14: 0.10%
  Area (%) peak 4, RRT 1.34: 0.20%
[3]; 60° C./close, 2 weeks
  HPLC Purity (area %), main peak RRT 1.00: 99.49 area %
[3]; 60° C./close, 4 weeks
  HPLC Purity (area %), main peak RRT 1.00: 99.47 area %
  HPLC Reults of initial (%): 100.00%
[3]; 60° C./close, 8 weeks
  HPLC Purity (area %), main peak RRT 1.00: 99.51 area %
  HPLC Reults of initial (%): 100.04%
[3]; Initial
  Area (%) peak 1, RRT 0.88: 0.23%
  Area (%) peak 2, RRT 1.00 (main peak): 99.47%
  Area (%) peak 3, RRT 1.14: 0.10%
  Area (%) peak 4, RRT 1.34: 0.20%
  HPLC Purity (area %), main peak RRT 1.00: 99.47 area %
physchem; FaSSIF-V2, 37 °C, fassif
  solubility at 2 h: 280 µg/mL (≈ 637 µM)
  solubility at 24 h: 290 µg/mL (≈ 660 µM)
physchem; FeSSIF-V2, 37 °C, fessif
  solubility at 2 h: 630 µg/mL (≈ 1430 µM)
  solubility at 24 h: 650 µg/mL (≈ 1480 µM)
physchem; [4]
  solubility at 2 h: 11 µg/mL (≈ 25 µM)
  solubility at 24 h: 9.6 µg/mL (≈ 21.8 µM)
physchem; [5]
  solubility at 2 h: 0.3 µg/mL (≈ 0.683 µM)
  solubility at 24 h: 0.4 µg/mL (≈ 0.91 µM)
physchem; [6]
  solubility at 2 h: 150 µg/mL
  solubility at 24 h: 170 µg/mL
physchem; [7]
  solubility at 2 h: 1900 µg/mL
  solubility at 24 h: 1900 µg/mL
physchem; water, 37 °C
  solubility at 2 h: 36 µg/mL (≈ 81.9 µM)
